Assays:
A673 cells [1] = test: Cytotoxicity assay in A673 cells; type: cell-based, human; conditions: for IC50: Homo sapiens, A673, 48 h, read-out: A673 cells Cytotox. IC50
A673 cells [2] = test: Cellular lactate production assay in A673 cells; type: cell-based, human; conditions: for IC50: Homo sapiens, A673, 0.5 h, read-out: A673 cells lactate inh. IC50
LDHA = LDHA (Homo sapiens, UniProt P00338); test: Biochemical LDHA inhibition assay
[3] = target: LDHA with C-terminal HiBiT fusion tag (Homo sapiens, UniProt P00338); test: SplitLuc CETSA; type: cell-based
MiaPaCa-2 cells [4] = test: Cytotoxicity assay in MiaPaCa-2 cells; type: cell-based; conditions: Homo sapiens, MIA PaCa-2, 48 h, read-out: MiaPaCa-2 cells Cytotox. IC50
MiaPaCa-2 cells [5] = test: Cellular lactate production assay in MiaPaCa-2 cells; type: cell-based; conditions: Homo sapiens, MIA PaCa-2, 0.5 h, read-out: MiaPaCa-2 cells lactate inh. IC50
[6] = Mouse pharmacokinetic studies; type: in vivo, CD1 mice; conditions: male, CD1, mouse, plasma, iv, 10 mg/kg
[7] = test system: tumor LDH activity (A673 flank xenograft); test: In vivo LDHA activity in A673 xenograft tumor mouse model; conditions: single IV 50 mg/kg, A673 xenograft mice
[8] = both cell lines (A673 and MiaPaCa-2)

| Compound | IC50 (LDHA) | IC50 (A673 cells [2]) | IC50 [3] | IC50 (MiaPaCa-2 cells [5]) | IC50 (A673 cells [1]) | also measured |
| --- | --- | --- | --- | --- | --- | --- |
| C#Cc1cc(-c2nn(-c3nc(C(=O)O)cs3)c(CC3CC3)c2Cc2ccc(S(N)(=O)=O)c(F)c2)ccc1F [Compound 11, 2-(5-(Cyclopropylmethyl)-3-(3-ethynyl-4-fluorophenyl)-4-(3-fluoro-4-sulfamoylbenzyl)-1H-pyrazol-1-yl)thiazole-4-carboxylic Acid] | – | – | – | – | – | loss in potency in cytotoxicity relative to 10 (A673 cells [1]; [8]): < 3 fold; loss in potency toward lactate output relative to 10 (A673 cells [2]; [8]): < 2 fold |
| NS(=O)(=O)c1ccc(Cc2c(-c3ccc(F)c(C#CC4(F)CCCC4)c3)nn(-c3nc(C(=O)O)cs3)c2CC2CC2)cc1F [Compound 24, 2-(5-(Cyclopropylmethyl)-3-(4-fluoro-3-((1-fluorocyclopentyl)-ethynyl)phenyl)-4-(3-fluoro-4-sulfamoylbenzyl)-1H-pyrazol-1-yl)-thiazole-4-carboxylic Acid] | 33 nM | 450 nM | 95 nM | 454 nM | 689 nM | IC50 (MiaPaCa-2 cells [4]): 593 nM |
| NS(=O)(=O)c1ccc(Cc2c(-c3ccc(F)c(C#CC4(O)CCCC4)c3)nn(-c3nc(C(=O)O)cs3)c2CC2CC2)cc1F [Compound 25, 2-(5-(Cyclopropylmethyl)-3-(4-fluoro-3-((1-hydroxycyclopentyl)-ethynyl)phenyl)-4-(3-fluoro-4-sulfamoylbenzyl)-1H-pyrazol-1-yl)-thiazole-4-carboxylic Acid] | 7 nM | 1930 nM | 150 nM | 1480 nM | 2190 nM | IC50 (MiaPaCa-2 cells [4]): 2180 nM |
| NS(=O)(=O)c1ccc(Cc2c(-c3ccc(F)c(C#CC4(F)COC4)c3)nn(-c3nc(C(=O)O)cs3)c2CC2CC2)cc1F [Compound 27, 2-(5-(Cyclopropylmethyl)-3-(4-fluoro-3-((3-fluorooxetan-3-yl)-ethynyl)phenyl)-4-(3-fluoro-4-sulfamoylbenzyl)-1H-pyrazol-1-yl)-thiazole-4-carboxylic Acid] | 7 nM | 1320 nM | 126 nM | 1050 nM | 2650 nM | IC50 (MiaPaCa-2 cells [4]): 2260 nM |
| NS(=O)(=O)c1ccc(Cc2c(-c3ccc(F)c(C#CC4(O)COC4)c3)nn(-c3nc(C(=O)O)cs3)c2CC2CC2)cc1F [Compound 28, 2-(5-(Cyclopropylmethyl)-3-(4-fluoro-3-((3-hydroxyoxetan-3-yl)-ethynyl)phenyl)-4-(3-fluoro-4-sulfamoylbenzyl)-1H-pyrazol-1-yl)-thiazole-4-carboxylic Acid] | 6 nM | 12200 nM | 1500 nM | 4870 nM | 3590 nM | IC50 (MiaPaCa-2 cells [4]): 2990 nM |
| Cc1ccc(C#Cc2cc(-c3nn(-c4nc(C(=O)O)cs4)c(CC4CC4)c3Cc3ccc(S(N)(=O)=O)c(F)c3)ccc2F)o1 [Compound 44, 2-(5-(Cyclopropylmethyl)-3-(4-fluoro-3-((5-methylfuran-2-yl)-ethynyl)phenyl)-4-(3-fluoro-4-sulfamoylbenzyl)-1H-pyrazol-1-yl)-thiazole-4-carboxylic Acid] | – | – | – | – | – | clearance at 24 h [6]: 75 mL/min/kg |
| Cc1ncc(C#Cc2cc(-c3nn(-c4nc(C(=O)O)cs4)c(CC4CC4)c3Cc3ccc(S(N)(=O)=O)c(F)c3)ccc2F)s1 [Compound 46, 2-(5-(Cyclopropylmethyl)-3-(4-fluoro-3-((2-methylthiazol-5-yl)-ethynyl)phenyl)-4-(3-fluoro-4-sulfamoylbenzyl)-1H-pyrazol-1-yl)-thiazole-4-carboxylic Acid] | – | – | – | – | – | clearance at 24 h [6]: 97 mL/min/kg |
| NS(=O)(=O)c1ccc(Cc2c(-c3cccc(C#Cc4ccc(C5CC5)s4)c3)nn(-c3nc(C(=O)O)cs3)c2CC2CC2)cc1F [Compound 56, 2-(5-(Cyclopropylmethyl)-3-(3-((5-cyclopropylthiophen-2-yl)-ethynyl)phenyl)-4-(3-fluoro-4-sulfamoylbenzyl)-1H-pyrazol-1-yl)-thiazole-4-carboxylic Acid] | – | – | – | – | – | effect on LDH activity in tumors (in words) [7]: moderate inhibition; inhibition of tumor LDH activity at 6 h postdose ([7]; 6 h): failed to maintain significant inhibition |
| Cc1ccc(C#Cc2cccc(-c3nn(-c4nc(C(=O)O)cs4)c(CC4CC4)c3Cc3ccc(S(N)(=O)=O)c(F)c3)c2)o1 [Compound 61, 2-(5-(Cyclopropylmethyl)-4-(3-fluoro-4-sulfamoylbenzyl)-3-(3-((5-methylfuran-2-yl)ethynyl)phenyl)-1H-pyrazol-1-yl)thiazole-4-carboxylic Acid] | – | – | – | – | – | clearance at 24 h [6]: 72.3 mL/min/kg |
| NS(=O)(=O)c1ccc(Cc2c(-c3ccc(F)c(/C=C/C4CCCC4)c3)nn(-c3nc(C(=O)O)cs3)c2CC2CC2)cc1F [Compound 69, (E)-2-(3-(3-(2-Cyclopentylvinyl)-4-fluorophenyl)-5-(cyclopropylmethyl)-4-(3-fluoro-4-sulfamoylbenzyl)-1H-pyrazol-1-yl)thiazole-4-carboxylic Acid] | – | – | – | – | – | clearance at 24 h [6]: 74.7 mL/min/kg; effect on LDH activity in tumors (in words) [7]: less effects |
| C/C=C/c1cc(-c2nn(-c3nc(C(=O)O)cs3)c(CC3CC3)c2Cc2ccc(S(N)(=O)=O)c(F)c2)ccc1F [Compound 71, (E)-2-(5-(Cyclopropylmethyl)-3-(4-fluoro-3-(prop-1-en-1-yl)phenyl)-4-(3-fluoro-4-sulfamoylbenzyl)-1H-pyrazol-1-yl)thiazole-4carboxylic Acid] | – | – | – | – | – | effect on LDH activity in tumors (in words) [7]: less effects |
| C=C(c1cc(-c2nn(-c3nc(C(=O)O)cs3)c(CC3CC3)c2Cc2ccc(S(N)(=O)=O)c(F)c2)ccc1F)C(F)(F)F [Compound 73, 2-(5-(Cyclopropylmethyl)-3-(4-fluoro-3-(3,3,3-trifluoroprop-1-en-2-yl)phenyl)-4-(3-fluoro-4-sulfamoylbenzyl)-1H-pyrazol-1-yl)-thiazole-4-carboxylic Acid] | 39 nM | 713 nM | 398 nM | 972 nM | 16000 nM | – |
| Cc1ccc(C#Cc2cc(-c3nn(-c4nc(C(=O)O)cs4)c(CCC4CC4)c3Cc3ccc(S(N)(=O)=O)c(F)c3)ccc2F)s1 [Compound 74, 2-(5-(2-Cyclopropylethyl)-3-(4-fluoro-3-((5-methylthiophen-2yl)ethynyl)phenyl)-4-(3-fluoro-4-sulfamoylbenzyl)-1H-pyrazol-1-yl)thiazole-4-carboxylic Acid] | – | – | – | – | – | AUC(0-t) [6]: 6650 ng·h/mL; clearance [6]: 74.7 mL/min/kg; effect on LDH activity in tumors (in words) [7]: moderate inhibition |
| Cc1ccc(C#Cc2cccc(-c3nn(-c4nc(C(=O)O)cs4)c(CCC4CC4)c3Cc3ccc(S(N)(=O)=O)c(F)c3)c2)s1 [Compound 75, 2-(5-(2-Cyclopropylethyl)-4-(3-fluoro-4-sulfamoylbenzyl)-3-(3-((5-methylthiophen-2-yl)ethynyl)phenyl)-1H-pyrazol-1-yl)thiazole-4-carboxylic Acid] | – | – | – | – | – | clearance at 24 h [6]: 18.6 mL/min/kg |

Continued, in another order:

| IC50 (LDHA) | IC50 (A673 cells [2]) | IC50 [3] | IC50 (MiaPaCa-2 cells [5]) | Compound | IC50 (A673 cells [1]) | also measured |
| --- | --- | --- | --- | --- | --- | --- |
| 160 nM | 434 nM | 142 nM | 254 nM | Cc1cc(C#Cc2cccc(-c3nn(-c4nc(C(=O)O)cs4)c(CCC4CC4)c3Cc3ccc(S(N)(=O)=O)c(F)c3)c2)cs1 [Compound 77, 2-(5-(2-Cyclopropylethyl)-4-(3-fluoro-4-sulfamoylbenzyl)-3-(3-((5-methylthiophen-3-yl)ethynyl)phenyl)-1H-pyrazol-1-yl)thiazole-4-carboxylic Acid] | 197 nM | – |
| 874 nM | 685 nM | 708 nM | 1030 nM | Cc1ccc(C#Cc2cccc(-c3nn(-c4nc(C(=O)O)cs4)c(C(C)C4CC4)c3Cc3ccc(S(N)(=O)=O)c(F)c3)c2)s1 (stereo not shown) [Compound 84, 2-(5-(1-Cyclopropylethyl)-4-(3-fluoro-4-sulfamoylbenzyl)-3-(3-((5-methylthiophen-2-yl)ethynyl)phenyl)-1H-pyrazol-1-yl)thiazole-4-carboxylic Acid] | 968 nM | – |
| 4540 nM | 18300 nM | 10800 nM | 5140 nM | Cc1ccc(C#Cc2cccc(-c3nn(-c4nc(C(=O)O)cs4)c(C(C)(C)C4CC4)c3Cc3ccc(S(N)(=O)=O)c(F)c3)c2)s1 [Compound 85, 2-(5-(2-Cyclopropylpropan-2-yl)-4-(3-fluoro-4-sulfamoylbenzyl)-3-(3-((5-methylthiophen-2-yl)ethynyl)phenyl)-1H-pyrazol-1-yl)-thiazole-4-carboxylic Acid] | 5900 nM | – |
| 307 nM | 346 nM | 251 nM | 409 nM | Cc1ccc(C#Cc2cccc(-c3nn(-c4nc(C(=O)O)cs4)c(CC4(C)CC4)c3Cc3ccc(S(N)(=O)=O)c(F)c3)c2)s1 [Compound 86, 2-(4-(3-Fluoro-4-sulfamoylbenzyl)-5-((1-methylcyclopropyl)-methyl)-3-(3-((5-methylthiophen-2-yl)ethynyl)phenyl)-1H-pyrazol-1-yl)thiazole-4-carboxylic Acid] | 590 nM | – |
| 1170 nM | 364 nM | 1030 nM | 515 nM | Cc1ccc(C#Cc2cccc(-c3nn(-c4nc(C(=O)O)cs4)c(C4CC4C4CC4)c3Cc3ccc(S(N)(=O)=O)c(F)c3)c2)s1 (stereo not shown) [Compound 88, 2-(5-([1,1′-Bi(cyclopropan)]-2-yl)-4-(3-fluoro-4-sulfamoylbenzyl)-3-(3-((5-methylthiophen-2-yl)ethynyl)phenyl)-1H-pyrazol-1-yl)thiazole-4-carboxylic Acid] | 4690 nM | – |
| 5270 nM | 1860 nM | 3180 nM | 1220 nM | Cc1ccc(C#Cc2cccc(-c3nn(-c4nc(C(=O)O)cs4)c(C(C4CC4)C4CC4)c3Cc3ccc(S(N)(=O)=O)c(F)c3)c2)s1 [Compound 89, 2-(5-(Dicyclopropylmethyl)-4-(3-fluoro-4-sulfamoylbenzyl)-3-(3-((5-methylthiophen-2-yl)ethynyl)phenyl)-1H-pyrazol-1-yl)thiazole-4-carboxylic Acid] | 26400 nM | – |
